Assay results reported in patent US20230331780A1, “COMPOSITIONS AND METHODS FOR THE TREATMENT OF ALZHEIMER'S DISEASE” (The Trustees of Columbia University in the City of New York, priority 2020, published 2023).

Tests used:
CD45 phosphatase = biological target: T1, CD45 phosphatase (Homo sapiens, UniProt P08575); assay: CD45 phosphatase activity in THP1 cells; assay type: cell-based; conditions: peptide added to THP1 cells; FIG. 2
T1 construct: endogenous in cells; host or cells: THP1 cells
T1 sequence (P08575 26-1306): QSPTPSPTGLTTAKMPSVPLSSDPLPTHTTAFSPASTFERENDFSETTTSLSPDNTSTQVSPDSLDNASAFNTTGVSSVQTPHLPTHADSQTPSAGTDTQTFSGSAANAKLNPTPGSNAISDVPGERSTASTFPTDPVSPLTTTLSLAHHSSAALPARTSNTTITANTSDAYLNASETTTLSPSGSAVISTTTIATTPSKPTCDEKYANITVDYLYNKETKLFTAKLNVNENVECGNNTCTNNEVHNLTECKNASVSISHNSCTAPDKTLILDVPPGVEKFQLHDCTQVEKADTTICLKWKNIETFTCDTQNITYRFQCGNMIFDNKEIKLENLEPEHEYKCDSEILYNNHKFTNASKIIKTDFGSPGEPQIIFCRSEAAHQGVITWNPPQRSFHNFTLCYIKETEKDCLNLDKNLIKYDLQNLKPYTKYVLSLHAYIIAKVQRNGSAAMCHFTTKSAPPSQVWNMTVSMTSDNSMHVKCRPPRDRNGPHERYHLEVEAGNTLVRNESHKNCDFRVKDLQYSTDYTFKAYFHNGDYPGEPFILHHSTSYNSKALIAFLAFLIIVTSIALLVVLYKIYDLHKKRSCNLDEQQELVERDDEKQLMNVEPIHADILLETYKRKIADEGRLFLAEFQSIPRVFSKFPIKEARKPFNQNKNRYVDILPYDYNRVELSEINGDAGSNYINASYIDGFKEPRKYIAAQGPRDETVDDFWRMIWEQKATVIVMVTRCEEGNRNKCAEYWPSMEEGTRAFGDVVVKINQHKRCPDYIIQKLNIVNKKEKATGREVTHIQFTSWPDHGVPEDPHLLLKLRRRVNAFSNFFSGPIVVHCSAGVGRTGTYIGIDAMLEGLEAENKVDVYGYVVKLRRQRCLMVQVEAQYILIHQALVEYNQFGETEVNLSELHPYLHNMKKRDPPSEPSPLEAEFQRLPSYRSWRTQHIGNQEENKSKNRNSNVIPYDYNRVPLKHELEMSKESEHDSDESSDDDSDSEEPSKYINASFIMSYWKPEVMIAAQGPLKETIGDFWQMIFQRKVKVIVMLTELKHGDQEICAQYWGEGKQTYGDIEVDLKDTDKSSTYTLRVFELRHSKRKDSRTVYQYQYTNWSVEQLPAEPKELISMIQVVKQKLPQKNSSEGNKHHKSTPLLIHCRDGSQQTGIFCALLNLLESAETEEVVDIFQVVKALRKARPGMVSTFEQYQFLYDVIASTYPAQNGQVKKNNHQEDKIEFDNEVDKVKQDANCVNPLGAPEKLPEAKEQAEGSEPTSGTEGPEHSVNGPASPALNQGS

[1] = test system: exogenous Amyloid-beta 1-42 in mouse brain; assay: exogenous amyloid-beta 1-42 clearance in mouse brain, peptide delivered to brain ventricles by osmotic mini pump; assay type: in vivo; conditions: ICV via osmotic mini pump, 10 uM solution, approx. 3 ug/kg daily, 28 days, Amyloid-beta 647, confocal microscopy, FIG. 3A/3B
Protocol: Third, by leveraging an in vivo model of microglia-mediated amyloid uptake in the mouse brain, and using osmotic mini pumps implanted subcutaneously to deliver the peptide through a catheter connected to the brain ventricles, it was shown that the inhibitory peptide SEQ ID NO:1 (peptide #1) reduces the amount of exogenous amyloid-beta 1-42 detectable in the brains of animals (FIG. 3A and FIG. 3B). 10 uM peptide solutions, containing SEQ ID NO: 1 (peptide #1) or SEQ ID NO: 2 (peptide #4), were added to osmotic mini pumps to permit daily delivery of approximately 5 ul of dosing solution or 3 ug/kg of peptide. A fluorescently labelled analog of amyloid beta 1-42 (Amyloid-beta 647) was delivered via ICV infusion. Confocal microscopy was later used to quantify signal in hippocampal sections. […] By the end of the treatment (28 days), brain sections were performed and analyzed by confocal microscope.
Hippocampus areas are shown of the three treated mice (FIG. 3A). Quantification of Amyloid-beta 1-42 in the hippocampus from the three mouse groups are shown with a marked decrease of Amyloid-beta 1-42 in mice that received Peptide #1 but not those that were treated with Peptide #4 (FIG. 3B). […] By the end of the treatment (28 days), brain sections were analyzed by confocal microscope.

[2] = test system: exogenous Amyloid-beta 1-42 in mouse brain; assay: exogenous amyloid-beta 1-42 clearance in mouse brain, peptide delivered subcutaneously; assay type: in vivo; conditions: peptide subcutaneous via pump, A-beta ICV, 28 days, confocal microscopy, FIG. 4
Protocol: Hippocampus areas are shown of the three treated mice (FIG. 3A). Quantification of Amyloid-beta 1-42 in the hippocampus from the three mouse groups are shown with a marked decrease of Amyloid-beta 1-42 in mice that received Peptide #1 but not those that were treated with Peptide #4 (FIG. 3B). […] The fluorescent labelled A-beta (red) was directly administered to the brain via a mini osmotic pump implanted subcutaneously and connected to the brain ventricles through a catheter for continuous drug delivery. The peptide (SEQ ID NO: 1) was delivered subcutaneously via another pump. By the end of the treatment (28 days), brain sections were analyzed by confocal microscope.

[3] = test system: endogenous Amyloid-beta 1-42 in 5×FAD mice; assay: endogenous amyloid-beta 1-42 in brains of 5×FAD mice; assay type: in vivo, mouse; conditions: ICV via osmotic mini pump, 28 days, versus vehicle, FIG. 5A/5B
Description: Fourth, by leveraging a second in vivo model of microglia-mediated amyloid uptake in the mouse brain, and using osmotic mini pumps implanted subcutaneously to deliver the peptide through a catheter connected to the brain ventricles, it was shown that the inhibitory peptide SEQ ID NO:1 (peptide #1) reduces the amount of endogenous amyloid-beta 1-42 detectable in the brains of 5×FAD animals (FIG. 5A and FIG. 5B). 5×FAD mice express human APP and PSEN1 transgenes that include five AD-linked mutations. These mice recapitulate many AD-related phenotypes and have a relatively early and aggressive presentation. Amyloid plaques, accompanied by gliosis, are seen in mice as young as two months of age. Neuron loss occurs in multiple brain regions, beginning at about 6 months in the areas with the most pronounced amyloidosis. Mice display a range of cognitive and motor deficits.
Peptide was directly administered to the brain via a mini osmotic pump implanted subcutaneously and connected to the brain ventricles through a catheter for continuous drug delivery. By the end of the treatment (28 days), brain sections were generated and analyzed by confocal microscope. A representative image from an animal in each of the three groups is shown (FIG. 5A). Quantification of E610 immunoreactivity in the hippocampus, reflective Amyloid-beta 1-42 levels, from the three mouse groups is shown.

[4] = test system: NeuN positive neurons in Layer 5 of the piriform cortex; assay: neuronal survival in 5×FAD mice given exogenous Amyloid-beta 1-42; assay type: in vivo, mouse; conditions: 5×FAD mice treated with exogenous Amyloid-beta 1-42; ICV via osmotic mini pump, 28 days; FIG. 6
Description: Fifth, in a modified version of this second in vivo model of Alzheimer's Disease, and using osmotic mini pumps implanted subcutaneously to deliver the peptide through a catheter connected to the brain ventricles, it was shown that the inhibitory peptide SEQ ID NO:1 (peptide #1) reduces neuronal loss in transgenic 5×FAD animals treated with exogenous Amyloid-beta 1-42 (FIG. 6). […] Peptide was directly administered to the brain via a mini osmotic pump implanted subcutaneously and connected to the brain ventricles through a catheter for continuous drug delivery. By the end of the treatment (28 days), brain sections were generated and analyzed by confocal microscope. Quantification of NeuN immunoreactivity in Layer 5 of the piriform cortex, reflective of neuronal number, from the three mouse groups is shown.

[5] = biological target: T2, interaction between CD33 and CD45 (Homo sapiens, UniProt P08575); assay: proximity ligation assay of CD33-CD45 interaction in THP1 cells; assay type: cell-based; conditions: human myeloid cell line THP1; peptide 0-0.1 mM; FIG. 1
T2 construct: in the human myeloid cell line THP1 using the proximity ligation assay; endogenous in cells; host or cells: THP1 (human myeloid cell line)
T2 sequence (P08575 26-1306): T1 sequence (P08575 26-1306)
Description: To test if the binding interaction between CD33 and any of its ligands is involved in AD pathogenesis, a 12-mer peptide (RMESKTEKWMER; SEQ ID NO: 1) was designed based on the structure of the sialic-acid binding domain of siglecs (Sialic acid-binding immunoglobulin-type lectins).

| Sequence | CD45 phosphatase activity (CD45 phosphatase) | amount of exogenous Amyloid-beta 1-42 in hippocampus [1] | amount of exogenous Amyloid-beta 1-42 in brain parenchyma [2] | amount of endogenous Amyloid-beta 1-42 (E610 immunoreactivity in hippocampus) [3] | neuronal survival (NeuN immunoreactivity in Layer 5 of the piriform cortex) [4] | interaction between CD33 and CD45 (proximity ligation assay) [5] |
| --- | --- | --- | --- | --- | --- | --- |
| MESKTEKWMERI [SEQ ID NO: 2, reference compound] | does not |  |  |  |  |  |
| RMESKTEKWMER [SEQ ID NO: 1] | leads to an increase in CD45 phosphatase activity | decreases the amount of exogenous Amyloid-beta 1-42 in vivo | decreases the amount of exogenous Amyloid-beta 1-42 in brain | decreases the amount of endogenous Amyloid-beta 1-42 in vivo | increased neuronal survival in vivo | reduces the interaction between CD33 and CD45 |
